Like-named read-outs stand apart in the source and are kept apart here.
Columns and labels:
[1] = cited from earlier work; for longitudinal relaxation time T1: dissolved phase, estimated
[2] = longitudinal relaxation time T1 of polarized 129Xe; assay type: physicochemical, human; conditions: gas in the lung, with decay due to blood uptake included
Text: As will be appreciated by those of skill in the art, imaging with polarized dissolved gas depends on transport of sufficient surviving polarization or magnetization to tissues of interest. In a preferred embodiment, the tissues of interest include the pulmonary region, and particularly the pulmonary vasculature. As will also be appreciated by those of skill in the art, polarization decays corresponding to the longitudinal relaxation time, T1. Dissolved phase ^129Xe can have a relatively short relaxation time (T1) generally thought to be due to the presence of oxygen and due to paramagnetic deoxyhemoglobin in the blood. For example, T1 for substantially fully oxygenated human cell membranes is estimated at about 15 seconds. Alternatively, T1 in blood has also been estimated as about 5 seconds. See A. Bifone et al., 93 Proc. Natl. Acad. Sci., p. 12932 (1996). Taking the estimated upper limit of about a five second transit time to the heart as discussed above, the xenon polarization can be attenuated to about ⅓ of its starting value at the heart. This relationship supports that TR should be shortened to less than about 2.5 seconds, and preferably less than about 1-2 seconds. Correspondingly, with about a 2.5 second transit time, the magnetization can be calculated as noted above to be about 0.61 of its starting magnetization. […]

effective T1 [2]: about 33 seconds
SMILES: [129Xe] [^129Xe, Xenon-129]
longitudinal relaxation time T1 ([1]; in blood, Bifone et al. 1996): about 5 seconds | longitudinal relaxation time T1 ([1]; substantially fully oxygenated human cell membranes): about 15 seconds | gas phase T1 ([1]; gas phase in the lungs, estimated from generally known oxygen related effects): about 35 seconds
